Tests used:
Conditions in all cases: binder
ABL1 = ABL1 (Homo sapiens, UniProt P00519)
BIKE = BIKE (Homo sapiens, UniProt Q9NSY1)
BMX = target: T1, BMX (Homo sapiens, UniProt P51813)
T1 sequence (P51813 1-675): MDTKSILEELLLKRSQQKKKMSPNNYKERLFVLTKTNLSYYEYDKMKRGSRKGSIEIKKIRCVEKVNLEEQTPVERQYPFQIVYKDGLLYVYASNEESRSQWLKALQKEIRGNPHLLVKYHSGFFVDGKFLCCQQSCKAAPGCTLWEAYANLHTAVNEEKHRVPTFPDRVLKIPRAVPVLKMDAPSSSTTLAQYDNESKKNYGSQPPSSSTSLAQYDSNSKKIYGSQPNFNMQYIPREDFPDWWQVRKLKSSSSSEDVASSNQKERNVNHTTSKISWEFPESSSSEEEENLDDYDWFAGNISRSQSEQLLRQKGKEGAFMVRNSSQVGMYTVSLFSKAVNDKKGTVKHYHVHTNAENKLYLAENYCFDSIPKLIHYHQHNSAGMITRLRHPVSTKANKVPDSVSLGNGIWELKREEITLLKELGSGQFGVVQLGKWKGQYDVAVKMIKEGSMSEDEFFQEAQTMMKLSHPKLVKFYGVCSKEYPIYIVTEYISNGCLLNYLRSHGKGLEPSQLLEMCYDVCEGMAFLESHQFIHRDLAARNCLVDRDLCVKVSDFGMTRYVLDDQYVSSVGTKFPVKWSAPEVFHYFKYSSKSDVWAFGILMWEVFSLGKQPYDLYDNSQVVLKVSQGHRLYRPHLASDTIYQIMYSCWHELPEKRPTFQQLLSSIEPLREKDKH

CLK3 = CLK3 (Homo sapiens, UniProt P49761)
CLK3, sequence (P49761 whole entry): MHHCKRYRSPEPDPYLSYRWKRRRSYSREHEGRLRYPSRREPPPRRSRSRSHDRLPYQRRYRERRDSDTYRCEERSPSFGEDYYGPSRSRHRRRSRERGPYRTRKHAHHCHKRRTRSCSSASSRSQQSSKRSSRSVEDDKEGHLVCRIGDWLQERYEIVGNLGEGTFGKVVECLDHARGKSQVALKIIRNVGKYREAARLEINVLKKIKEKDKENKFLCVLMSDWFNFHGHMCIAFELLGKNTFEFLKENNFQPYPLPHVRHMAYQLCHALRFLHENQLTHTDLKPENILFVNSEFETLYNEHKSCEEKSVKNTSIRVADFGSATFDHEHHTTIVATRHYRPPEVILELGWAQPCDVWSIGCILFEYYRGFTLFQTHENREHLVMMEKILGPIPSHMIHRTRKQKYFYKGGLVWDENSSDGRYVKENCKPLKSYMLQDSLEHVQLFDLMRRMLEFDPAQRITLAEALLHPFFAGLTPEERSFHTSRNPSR

CaMK2b = CaMK2b (Homo sapiens, UniProt Q13554)
CaMK2b, sequence (Q13554 whole entry): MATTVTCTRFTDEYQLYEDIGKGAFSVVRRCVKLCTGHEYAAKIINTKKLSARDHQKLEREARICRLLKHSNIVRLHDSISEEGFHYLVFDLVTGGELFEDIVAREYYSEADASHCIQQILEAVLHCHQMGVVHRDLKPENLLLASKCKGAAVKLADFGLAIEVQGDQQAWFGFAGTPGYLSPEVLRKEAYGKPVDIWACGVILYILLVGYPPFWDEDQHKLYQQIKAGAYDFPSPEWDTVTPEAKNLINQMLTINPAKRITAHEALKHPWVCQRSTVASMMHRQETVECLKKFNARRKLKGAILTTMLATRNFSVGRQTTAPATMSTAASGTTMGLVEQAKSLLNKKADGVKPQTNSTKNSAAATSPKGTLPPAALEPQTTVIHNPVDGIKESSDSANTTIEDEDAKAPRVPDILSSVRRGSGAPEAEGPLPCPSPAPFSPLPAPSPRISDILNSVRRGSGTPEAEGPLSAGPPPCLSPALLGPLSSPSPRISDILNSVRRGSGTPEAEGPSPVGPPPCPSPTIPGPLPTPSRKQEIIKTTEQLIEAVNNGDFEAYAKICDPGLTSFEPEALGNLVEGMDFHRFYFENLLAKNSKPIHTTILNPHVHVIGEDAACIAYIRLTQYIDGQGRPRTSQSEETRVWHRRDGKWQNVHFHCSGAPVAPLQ

CaMK2d = CaMK2d (Homo sapiens, UniProt Q13557)
CaMK2d, sequence (Q13557 whole entry): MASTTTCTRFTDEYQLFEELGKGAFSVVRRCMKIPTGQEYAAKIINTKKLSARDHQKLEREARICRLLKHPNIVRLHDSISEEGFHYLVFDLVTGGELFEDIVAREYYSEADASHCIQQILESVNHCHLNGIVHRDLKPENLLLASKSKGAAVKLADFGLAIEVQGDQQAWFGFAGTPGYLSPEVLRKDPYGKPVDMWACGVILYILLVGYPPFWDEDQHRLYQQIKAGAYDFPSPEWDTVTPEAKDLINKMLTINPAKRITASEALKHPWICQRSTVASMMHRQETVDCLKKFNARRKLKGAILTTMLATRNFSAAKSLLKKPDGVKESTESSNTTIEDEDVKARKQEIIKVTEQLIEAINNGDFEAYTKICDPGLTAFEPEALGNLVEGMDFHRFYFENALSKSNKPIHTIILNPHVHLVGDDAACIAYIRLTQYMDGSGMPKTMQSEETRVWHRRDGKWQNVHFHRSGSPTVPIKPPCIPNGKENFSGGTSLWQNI

CaMKK2 = CaMKK2 (Homo sapiens, UniProt Q96RR4)
Erk7 = target: T2, Erk7 (Homo sapiens, UniProt Q8TD08)
T2 sequence (Q8TD08 1-544): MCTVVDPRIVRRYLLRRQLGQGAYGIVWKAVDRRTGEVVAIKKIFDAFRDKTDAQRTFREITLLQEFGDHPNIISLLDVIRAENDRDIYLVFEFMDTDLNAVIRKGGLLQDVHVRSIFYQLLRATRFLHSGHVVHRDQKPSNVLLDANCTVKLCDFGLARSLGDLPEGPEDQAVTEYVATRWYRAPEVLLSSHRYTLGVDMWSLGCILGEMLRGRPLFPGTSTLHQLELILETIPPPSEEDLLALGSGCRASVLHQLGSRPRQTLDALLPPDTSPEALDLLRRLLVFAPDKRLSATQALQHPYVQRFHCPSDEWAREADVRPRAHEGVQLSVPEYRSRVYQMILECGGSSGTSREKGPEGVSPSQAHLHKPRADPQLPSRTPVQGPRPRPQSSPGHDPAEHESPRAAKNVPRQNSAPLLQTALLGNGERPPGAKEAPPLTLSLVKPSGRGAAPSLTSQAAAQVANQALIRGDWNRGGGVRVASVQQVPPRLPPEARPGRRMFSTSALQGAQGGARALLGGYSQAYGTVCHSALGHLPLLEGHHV

JNK1 = JNK1 (Homo sapiens, UniProt P45983)
JNK1, sequence (P45983 whole entry): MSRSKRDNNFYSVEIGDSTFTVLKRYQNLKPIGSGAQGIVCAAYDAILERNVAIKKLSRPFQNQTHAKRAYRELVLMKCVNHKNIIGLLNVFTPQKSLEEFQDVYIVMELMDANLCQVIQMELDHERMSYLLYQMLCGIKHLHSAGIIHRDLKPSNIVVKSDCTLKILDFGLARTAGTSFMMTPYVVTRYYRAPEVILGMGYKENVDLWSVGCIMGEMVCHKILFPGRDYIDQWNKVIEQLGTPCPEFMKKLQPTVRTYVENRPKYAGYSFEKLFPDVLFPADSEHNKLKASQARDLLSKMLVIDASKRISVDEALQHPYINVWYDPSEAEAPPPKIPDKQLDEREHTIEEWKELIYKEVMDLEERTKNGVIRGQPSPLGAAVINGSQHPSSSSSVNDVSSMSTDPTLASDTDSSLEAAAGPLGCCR

MSK1b = MSK1b (Homo sapiens, UniProt O75582)
MSK1b, sequence (O75582 whole entry): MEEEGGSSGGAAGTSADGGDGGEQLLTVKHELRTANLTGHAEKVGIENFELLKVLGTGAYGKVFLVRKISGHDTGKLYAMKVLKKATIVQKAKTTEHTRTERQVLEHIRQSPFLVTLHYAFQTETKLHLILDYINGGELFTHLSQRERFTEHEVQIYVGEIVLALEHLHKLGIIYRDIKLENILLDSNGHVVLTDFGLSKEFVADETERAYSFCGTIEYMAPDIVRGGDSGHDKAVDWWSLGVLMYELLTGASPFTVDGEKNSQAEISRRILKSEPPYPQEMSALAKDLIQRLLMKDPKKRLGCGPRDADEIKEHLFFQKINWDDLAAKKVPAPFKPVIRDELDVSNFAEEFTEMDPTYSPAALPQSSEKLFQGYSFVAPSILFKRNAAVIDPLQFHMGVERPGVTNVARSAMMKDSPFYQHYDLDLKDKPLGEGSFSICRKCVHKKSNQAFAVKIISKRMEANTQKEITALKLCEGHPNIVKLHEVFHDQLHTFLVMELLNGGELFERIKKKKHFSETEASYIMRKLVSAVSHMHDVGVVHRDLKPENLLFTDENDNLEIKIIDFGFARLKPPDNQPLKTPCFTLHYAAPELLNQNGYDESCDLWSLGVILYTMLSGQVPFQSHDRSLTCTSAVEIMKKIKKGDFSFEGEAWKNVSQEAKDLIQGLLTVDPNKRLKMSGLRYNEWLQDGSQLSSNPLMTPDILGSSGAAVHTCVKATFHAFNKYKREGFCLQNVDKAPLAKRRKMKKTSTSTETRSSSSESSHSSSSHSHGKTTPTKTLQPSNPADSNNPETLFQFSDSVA

NDR2 = NDR2 (Homo sapiens, UniProt Q9Y2H1)
NDR2, sequence (Q9Y2H1 whole entry): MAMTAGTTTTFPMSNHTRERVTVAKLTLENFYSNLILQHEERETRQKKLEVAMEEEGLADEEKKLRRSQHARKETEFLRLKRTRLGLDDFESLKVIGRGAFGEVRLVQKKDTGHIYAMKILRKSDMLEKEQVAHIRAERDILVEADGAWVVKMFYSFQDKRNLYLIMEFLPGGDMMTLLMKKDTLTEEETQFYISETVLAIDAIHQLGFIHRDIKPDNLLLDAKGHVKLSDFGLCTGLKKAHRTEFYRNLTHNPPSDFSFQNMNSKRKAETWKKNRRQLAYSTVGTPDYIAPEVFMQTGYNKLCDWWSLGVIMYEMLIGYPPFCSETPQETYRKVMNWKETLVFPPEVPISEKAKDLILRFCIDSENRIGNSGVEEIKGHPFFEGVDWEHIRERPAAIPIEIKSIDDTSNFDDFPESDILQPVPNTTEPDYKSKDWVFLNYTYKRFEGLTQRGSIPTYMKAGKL

OSR1 = OSR1 (Homo sapiens, UniProt O95747)
OSR1, sequence (O95747 whole entry): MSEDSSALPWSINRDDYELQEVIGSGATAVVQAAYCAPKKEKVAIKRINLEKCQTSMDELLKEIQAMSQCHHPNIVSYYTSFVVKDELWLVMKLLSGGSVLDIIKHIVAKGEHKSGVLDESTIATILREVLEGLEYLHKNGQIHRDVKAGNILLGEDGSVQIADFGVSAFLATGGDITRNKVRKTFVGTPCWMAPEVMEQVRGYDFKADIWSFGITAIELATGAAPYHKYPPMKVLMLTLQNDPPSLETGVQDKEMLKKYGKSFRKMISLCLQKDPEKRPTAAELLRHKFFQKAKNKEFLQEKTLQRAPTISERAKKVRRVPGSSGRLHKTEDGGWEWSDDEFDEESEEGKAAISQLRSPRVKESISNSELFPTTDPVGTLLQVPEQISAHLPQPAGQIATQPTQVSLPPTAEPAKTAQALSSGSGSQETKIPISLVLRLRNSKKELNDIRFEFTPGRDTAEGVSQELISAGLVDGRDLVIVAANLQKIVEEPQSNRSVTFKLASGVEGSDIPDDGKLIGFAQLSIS

p38a = p38a (Homo sapiens, UniProt Q16539)

ABL1, sequence (P00519 whole entry): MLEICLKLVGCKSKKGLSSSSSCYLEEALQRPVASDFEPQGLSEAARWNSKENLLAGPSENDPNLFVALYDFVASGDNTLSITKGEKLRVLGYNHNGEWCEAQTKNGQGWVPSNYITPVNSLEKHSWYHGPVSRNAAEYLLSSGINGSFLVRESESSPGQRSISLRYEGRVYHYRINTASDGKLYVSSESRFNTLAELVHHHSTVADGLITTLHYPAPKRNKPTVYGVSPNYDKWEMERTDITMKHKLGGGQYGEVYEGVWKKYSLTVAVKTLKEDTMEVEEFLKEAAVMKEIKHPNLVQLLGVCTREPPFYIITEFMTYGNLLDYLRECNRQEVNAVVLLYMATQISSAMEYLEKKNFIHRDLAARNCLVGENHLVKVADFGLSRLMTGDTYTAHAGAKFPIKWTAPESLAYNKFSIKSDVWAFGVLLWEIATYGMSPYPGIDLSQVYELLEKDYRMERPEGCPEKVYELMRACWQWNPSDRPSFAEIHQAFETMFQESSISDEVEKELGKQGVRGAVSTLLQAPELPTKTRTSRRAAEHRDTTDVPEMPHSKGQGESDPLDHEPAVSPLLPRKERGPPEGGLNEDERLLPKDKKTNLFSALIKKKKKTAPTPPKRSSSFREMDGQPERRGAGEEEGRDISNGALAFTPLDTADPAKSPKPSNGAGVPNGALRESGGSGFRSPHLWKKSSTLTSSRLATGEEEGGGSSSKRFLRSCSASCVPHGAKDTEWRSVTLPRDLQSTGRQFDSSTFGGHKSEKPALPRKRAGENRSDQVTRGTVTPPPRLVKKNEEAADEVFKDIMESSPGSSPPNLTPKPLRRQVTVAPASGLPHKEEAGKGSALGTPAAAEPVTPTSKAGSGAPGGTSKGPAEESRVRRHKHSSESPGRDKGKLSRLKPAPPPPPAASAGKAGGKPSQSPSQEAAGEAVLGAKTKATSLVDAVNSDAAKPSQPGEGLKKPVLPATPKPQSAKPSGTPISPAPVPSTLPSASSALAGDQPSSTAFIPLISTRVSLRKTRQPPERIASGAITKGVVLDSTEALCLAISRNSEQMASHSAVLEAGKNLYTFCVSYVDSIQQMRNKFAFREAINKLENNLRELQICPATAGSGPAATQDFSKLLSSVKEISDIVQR

SMILES: CNc1ncc2cc(-c3ccc(-c4cccc(C)n4)cc3Cl)c(=O)n(CCCCN)c2n1 [compound 20, MRLW5]
- ΔTm MRLW5 (20) (ABL1): 4.9 °C
- ΔTm MRLW5 (20) (BIKE): 3.7 °C
- ΔTm MRLW5 (20) (BMX): 3.1 °C
- ΔTm MRLW5 (20) (CLK3): 0.2 °C
- ΔTm MRLW5 (20) (CaMK2b): -1.3 °C
- ΔTm MRLW5 (20) (CaMK2d): 0.1 °C
- ΔTm MRLW5 (20) (CaMKK2): 1.4 °C
- ΔTm MRLW5 (20) (Erk7): 1.0 °C
- ΔTm MRLW5 (20) (JNK1): 4.2 °C
- ΔTm MRLW5 (20) (MSK1b): 2.9 °C
- ΔTm MRLW5 (20) (NDR2): 4.6 °C
- ΔTm MRLW5 (20) (OSR1): 1.6 °C
- ΔTm MRLW5 (20) (p38a): 1.0 °C

SMILES: CNc1ncc2cc(-c3ccc(-c4cccc(C)n4)cc3Cl)c(=O)n(CCC3CCNCC3)c2n1 [compound 22, 6-(2-Chloro-4-(6-methylpyridin-2-yl)phenyl)-2-(methylamino)-8-(2-(piperidin-4-yl)ethyl)pyrido[2,3-d]pyrimidin-7(8H)-one]
- ΔTm 22 (ABL1): 4.9 °C
- ΔTm 22 (BIKE): 7.1 °C
- ΔTm 22 (BMX): 4.1 °C
- ΔTm 22 (CLK3): -0.4 °C
- ΔTm 22 (CaMK2b): -0.9 °C
- ΔTm 22 (CaMK2d): 0.0 °C
- ΔTm 22 (CaMKK2): 2.3 °C
- ΔTm 22 (Erk7): 1.5 °C
- ΔTm 22 (JNK1): 4.0 °C
- ΔTm 22 (MSK1b): 0.1 °C
- ΔTm 22 (NDR2): 5.1 °C
- ΔTm 22 (OSR1): 0.7 °C
- ΔTm 22 (p38a): 0.7 °C

SMILES: CNc1ncc2cc(-c3ccc(-c4cccc(C)n4)cc3Cl)c(=O)n(C[C@H]3CC[C@H](N)CC3)c2n1 [compound 23, 23]
- ΔTm 23 (ABL1): 7.9 °C
- ΔTm 23 (BIKE): 6.9 °C
- ΔTm 23 (BMX): 3.4 °C
- ΔTm 23 (CLK3): 1.0 °C
- ΔTm 23 (CaMK2b): 0.2 °C
- ΔTm 23 (CaMK2d): -0.2 °C
- ΔTm 23 (CaMKK2): 4.9 °C
- ΔTm 23 (Erk7): 4.2 °C
- ΔTm 23 (JNK1): 4.5 °C
- ΔTm 23 (MSK1b): 6.4 °C
- ΔTm 23 (NDR2): 3.5 °C
- ΔTm 23 (OSR1): 2.3 °C
- ΔTm 23 (p38a): 6.7 °C

SMILES: Cc1cccc(-c2ccc(-c3cc4cnc(NC(CO)CO)nc4n(CCCCN)c3=O)c(Cl)c2)n1 [compound 24, 8-(4-Aminobutyl)-6-(2-chloro-4-(6-methylpyridin-2-yl)phenyl)-2-((1,3-dihydroxypropan-2-yl)amino)pyrido[2,3-d]pyrimidin-7(8H)-one]
- ΔTm MR24 (24) (ABL1): 1.4 °C
- ΔTm MR24 (24) (BIKE): -0.4 °C
- ΔTm MR24 (24) (BMX): 0.6 °C
- ΔTm MR24 (24) (CLK3): -0.2 °C
- ΔTm MR24 (24) (CaMK2b): -0.8 °C
- ΔTm MR24 (24) (CaMK2d): -0.2 °C
- ΔTm MR24 (24) (CaMKK2): 0.2 °C
- ΔTm MR24 (24) (Erk7): -0.4 °C
- ΔTm MR24 (24) (JNK1): 0.7 °C
- ΔTm MR24 (24) (MSK1b): -1.0 °C
- ΔTm MR24 (24) (NDR2): 2.6 °C
- ΔTm MR24 (24) (OSR1): -0.5 °C
- ΔTm MR24 (24) (p38a): 2.8 °C

SMILES: Cc1cccc(-c2ccc(-c3cc4cnc(NCCCc5ccc(N)cc5)nc4n(CCCCN)c3=O)c(Cl)c2)n1 [compound 25, 8-(4-Aminobutyl)-2-((3-(4-aminophenyl)propyl)amino)-6-(2-chloro-4-(6-methylpyridin-2-yl)phenyl)pyrido[2,3-d]pyrimidin-7(8H)-one]
- ΔTm 25 (ABL1): 3.9 °C
- ΔTm 25 (BIKE): 1.8 °C
- ΔTm 25 (BMX): 3.1 °C
- ΔTm 25 (CLK3): -0.3 °C
- ΔTm 25 (CaMK2b): -0.1 °C
- ΔTm 25 (CaMK2d): -0.2 °C
- ΔTm 25 (CaMKK2): 3.3 °C
- ΔTm 25 (Erk7): 2.9 °C
- ΔTm 25 (JNK1): 4.5 °C
- ΔTm 25 (MSK1b): 1.4 °C
- ΔTm 25 (NDR2): 6.7 °C
- ΔTm 25 (OSR1): 0.4 °C
- ΔTm 25 (p38a): 6.1 °C

SMILES: Cc1cccc(-c2ccc(-c3cc4cnc(NCCCN5CCOCC5)nc4n(CCCCN)c3=O)c(Cl)c2)n1 [compound 26, MR26]
- ΔTm MR26 (26) (ABL1): 2.9 °C
- ΔTm MR26 (26) (BIKE): 0.7 °C
- ΔTm MR26 (26) (BMX): 2.4 °C
- ΔTm MR26 (26) (CLK3): -0.4 °C
- ΔTm MR26 (26) (CaMK2b): -0.3 °C
- ΔTm MR26 (26) (CaMK2d): -0.1 °C
- ΔTm MR26 (26) (CaMKK2): 1.5 °C
- ΔTm MR26 (26) (Erk7): -0.4 °C
- ΔTm MR26 (26) (JNK1): 0.8 °C
- ΔTm MR26 (26) (MSK1b): -0.4 °C
- ΔTm MR26 (26) (NDR2): 5.2 °C
- ΔTm MR26 (26) (OSR1): -0.1 °C
- ΔTm MR26 (26) (p38a): 4.0 °C
